Each structure is given as a SMILES string.

For the first assay, the target named is T1, Human ATX protein (Homo sapiens, UniProt Q13822).
T1 construct: made in house
The assay can be described thus: ATX biochemical FRET assay with FS-3 substrate. The note with it: FRET substrate FS-3 2 μM, ATX 1.0 μg/mL, 30 minutes pre-incubation, 2 hours at room temperature; read-out: IC50. In a few lines: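 Enzyme at 1.0 μg/mL final, pre-incubated with compound (10-point, 3-fold series) for 30 min at RT in Tris pH 7.4 buffer with NaCl, KCl, CaCl2, MgCl2 and 1 mg/mL fatty-acid-free BSA. After FS-3 addition, 2 h at RT protected from light; fluorescence at 485/538 nm.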
A word on the IC50: it is the concentration that inhibits the measured activity by half. For the compound `CCC(NC1CC(C(=O)O)C1(C)C)c1ccc2ccc(O[C@H]3CC[C@@H](C)CC3)c(C(F)(F)F)c2c1` (stereo partly drawn) [Example 105, 2,2-dimethyl-3-((1-(7-((cis-4-methylcyclohexyl)oxy)-8-(trifluoromethyl)naphthalen-2-yl)propyl)amino)cyclobutanecarboxylic acid], the IC50 is not above 100 nM.

As for `CC(C)[C@H]1CC[C@@H](Oc2ccc3ccc(CN4CCC(C(=O)O)CC4)cc3c2C(F)(F)F)CC1` [Example 106, 1-((7-((cis-4-isopropylcyclohexyl)oxy)-8-(trifluoromethyl)naphthalen-2-yl)methyl)piperidine-4-carboxylic acid], the IC50 was not above 500 nM.

Take `CC(N[C@H]1C[C@@H](C(=O)O)C1)c1ccc2ccc(O[C@H]3CC[C@@H](C)CC3)c(C(F)(F)F)c2c1` (stereo partly drawn) [Example 110, cis-3-((1-(7-((cis-4-methylcyclohexyl)oxy)-8-(trifluoromethyl)naphthalen-2-yl)ethyl)amino)cyclobutanecarboxylic acid]: the IC50 is not above 500 nM.

As to `CC(N[C@@H]1C[C@H](C(=O)O)C1(C)C)c1ccc2ccc(O[C@H]3CC[C@@H](C)CC3)c(C(F)(F)F)c2c1` (stereo partly drawn) [Example 112, (1S,3R)-2,2-dimethyl-3-((1-(7-((cis-4-methylcyclohexyl)oxy)-8-(trifluoromethyl)naphthalen-2-yl)ethyl)amino)cyclobutanecarboxylic acid], the IC50 was not above 100 nM.

On to `CC(N[C@H]1C[C@@H](C(=O)O)C1(C)C)c1ccc2ccc(O[C@H]3CC[C@@H](C)CC3)c(C(F)(F)F)c2c1` (stereo partly drawn) [Example 113, (1R,3S)-2,2-dimethyl-3-((1-(7-((cis-4-methylcyclohexyl)oxy)-8-(trifluoromethyl)naphthalen-2-yl)ethyl)amino)cyclobutanecarboxylic acid], for which the IC50 is not above 100 nM.

In the case of `C[C@H](N[C@H]1C[C@@H](C(=O)O)C1(C)C)c1ccc2ccc(O[C@H]3CC[C@@H](C)CC3)c(C(F)(F)F)c2c1` [Example 114b, (1R,3S)-2,2-dimethyl-3-(((S)-1-(7-((cis-4-methylcyclohexyl)oxy)-8-(trifluoromethyl)naphthalen-2-yl)ethyl)amino)cyclobutanecarboxylic acid], the IC50 was not above 100 nM.

Consider `C[C@@H](N[C@H]1C[C@H](C(=O)O)C1(C)C)c1ccc2ccc(O[C@H]3CC[C@@H](C)CC3)c(C(F)(F)F)c2c1` [Example 114c, (1S,3S)-2,2-dimethyl-3-(((R)-1-(7-((cis-4-methylcyclohexyl)oxy)-8-(trifluoromethyl)naphthalen-2-yl)ethyl)amino)cyclobutanecarboxylic acid], for which the half-inhibitory concentration (IC50) is not above 100 nM.

Regarding `C[C@@H](N[C@H]1C[C@@H](C(=O)O)C1(C)C)c1ccc2ccc(O[C@H]3CC[C@@H](C)CC3)c(C(F)(F)F)c2c1` [Example 114d, (1R,3S)-2,2-dimethyl-3-(((R)-1-(7-((cis-4-methylcyclohexyl)oxy)-8-(trifluoromethyl)naphthalen-2-yl)ethyl)amino)cyclobutanecarboxylic acid], the IC50 is not above 500 nM.

In the case of `CC[C@H]1CC[C@@H](Oc2ccc3ccc(C(C)N[C@@H]4C[C@H](C(=O)O)C4(C)C)cc3c2C(F)(F)F)CC1` (stereo partly drawn) [Example 115, (1S,3R)-3-((1-(7-((cis-4-ethylcyclohexyl)oxy)-8-(trifluoromethyl)naphthalen-2-yl)ethyl)amino)-2,2-dimethylcyclobutanecarboxylic acid], the IC50 was not above 100 nM.

On to `CC[C@H]1CC[C@@H](Oc2ccc3ccc(C(C)N[C@H]4C[C@@H](C(=O)O)C4(C)C)cc3c2C(F)(F)F)CC1` (some centres unmarked) [Example 116], for which the concentration for half-maximal inhibition (IC50) was not above 100 nM.

Turning to `CC[C@H]1CC[C@@H](Oc2ccc3ccc([C@H](C)N[C@@H]4C[C@H](C(=O)O)C4(C)C)cc3c2C(F)(F)F)CC1` [Example 117b, (1S,3R)-3-(((S)-1-(7-((cis-4-ethylcyclohexyl)oxy)-8-(trifluoromethyl)naphthalen-2-yl)ethyl)amino)-2,2-dimethylcyclobutanecarboxylic acid], the IC50 is not above 100 nM.

For the compound `CC[C@H]1CC[C@@H](Oc2ccc3ccc([C@@H](C)N[C@@H]4C[C@@H](C(=O)O)C4(C)C)cc3c2C(F)(F)F)CC1` [Example 117c, (1R,3R)-3-(((R)-1-(7-((cis-4-ethylcyclohexyl)oxy)-8-(trifluoromethyl)naphthalen-2-yl)ethyl)amino)-2,2-dimethylcyclobutanecarboxylic acid], the IC50 was not above 100 nM.

Turning to `CC[C@H]1CC[C@@H](Oc2ccc3ccc([C@H](C)N[C@H]4C[C@H](C(=O)O)C4(C)C)cc3c2C(F)(F)F)CC1` [Example 118a, (1S,3S)-3-(((S)-1-(7-((cis-4-ethylcyclohexyl)oxy)-8-(trifluoromethyl)naphthalen-2-yl)ethyl)amino)-2,2-dimethylcyclobutanecarboxylic acid], the IC50 is not above 500 nM.

As for `CC[C@H]1CC[C@@H](Oc2ccc3ccc([C@H](C)N[C@H]4C[C@@H](C(=O)O)C4(C)C)cc3c2C(F)(F)F)CC1` [Example 118b, (1R,3S)-3-(((S)-1-(7-((cis-4-ethylcyclohexyl)oxy)-8-(trifluoromethyl)naphthalen-2-yl)ethyl)amino)-2,2-dimethylcyclobutanecarboxylic acid], the IC50 is not above 100 nM.

In the case of `CC[C@H]1CC[C@@H](Oc2ccc3ccc([C@@H](C)N[C@H]4C[C@H](C(=O)O)C4(C)C)cc3c2C(F)(F)F)CC1` [Example 118c, (1S,3S)-3-(((R)-1-(7-((cis-4-ethylcyclohexyl)oxy)-8-(trifluoromethyl)naphthalen-2-yl)ethyl)amino)-2,2-dimethylcyclobutanecarboxylic acid], the IC50 is not above 250 nM.

For the compound `CC[C@H]1CC[C@@H](Oc2ccc3ccc([C@@H](C)N[C@H]4C[C@@H](C(=O)O)C4(C)C)cc3c2C(F)(F)F)CC1` [Example 118d, (1R,3S)-3-(((R)-1-(7-((cis-4-ethylcyclohexyl)oxy)-8-(trifluoromethyl)naphthalen-2-yl)ethyl)amino)-2,2-dimethylcyclobutanecarboxylic acid], the IC50 was not above 500 nM.

Regarding `CC(N[C@@H]1C[C@H](C(=O)O)C1(C)C)c1ccc2ccc(O[C@H]3CC[C@@H](C(F)(F)F)CC3)c(C(F)(F)F)c2c1` (stereo partly drawn) [Example 119, (1S,3R)-2,2-dimethyl-3-((1-(8-(trifluoromethyl)-7-((cis-4-(trifluoromethyl)cyclohexyl)oxy)naphthalen-2-yl)ethyl)amino)cyclobutanecarboxylic acid], the IC50 is not above 100 nM.

Turning to `CC(N[C@H]1C[C@@H](C(=O)O)C1(C)C)c1ccc2ccc(O[C@H]3CC[C@@H](C(F)(F)F)CC3)c(C(F)(F)F)c2c1` (stereo partly drawn) [Example 120, (1R,3S)-2,2-dimethyl-3-((1-(8-(trifluoromethyl)-7-((cis-4-(trifluoromethyl)cyclohexyl)oxy)naphthalen-2-yl)ethyl)amino)cyclobutanecarboxylic acid], the IC50 was not above 100 nM.

With `C[C@H](N[C@@H]1C[C@H](C(=O)O)C1(C)C)c1ccc2ccc(O[C@H]3CC[C@@H](C(F)(F)F)CC3)c(C(F)(F)F)c2c1` [Example 121b, (1S,3R)-2,2-dimethyl-3-(((S)-1-(8-(trifluoromethyl)-7-((cis-4-(trifluoromethyl)cyclohexyl)oxy)naphthalen-2-yl)ethyl)amino)cyclobutanecarboxylic acid], the half-maximal inhibitory concentration (IC50) was not above 100 nM.

Turning to `O=C(O)C1CCCN(Cc2ccc3ccc(O[C@H]4CC[C@@H](C(F)(F)F)CC4)c(C(F)(F)F)c3c2)CC1` (stereo partly drawn) [Example 123, 1-((8-(trifluoromethyl)-7-((cis-4-(trifluoromethyl)cyclohexyl)oxy)naphthalen-2-yl)methyl)azepane-4-carboxylic acid], the IC50 is not above 250 nM.

For the compound `O=C(O)[C@H]1CC[C@@H](NCc2ccc3ccc(O[C@H]4CC[C@@H](C(F)(F)F)CC4)c(C(F)(F)F)c3c2)CC1` [Example 124, cis-4-(((8-(trifluoromethyl)-7-((cis-4-(trifluoromethyl)cyclohexyl)oxy)naphthalen-2-yl)methyl)amino)cyclohexanecarboxylic acid], the IC50 was not above 250 nM.

Take `O=C(O)[C@H]1CC[C@H](NCc2ccc3ccc(O[C@H]4CC[C@@H](C(F)(F)F)CC4)c(C(F)(F)F)c3c2)CC1` [Example 125, trans-4-(((8-(trifluoromethyl)-7-((cis-4-(trifluoromethyl)cyclohexyl)oxy)naphthalen-2-yl)methyl)amino)cyclohexanecarboxylic acid]: the IC50 was not above 500 nM.

Still in this assay, the particulars now being: IC50, FRET substrate FS-3 2 μM, ATX 1.0 μg/mL, 30 minutes pre-incubation, 2 hours at room temperature.
`CC(c1ccc2ccc(O[C@H]3CC[C@@H](C)CC3)c(C#N)c2c1)N1C2CCCC1CC(C(=O)O)C2` (stereo partly drawn) [Example 102, 9-(1-(8-cyano-7-((cis-4-methylcyclohexyl)oxy)naphthalen-2-yl)ethyl)-9-azabicyclo[3.3.1]nonane-3-carboxylic acid]: the IC50 is not above 100 nM.

`CCC(c1ccc2ccc(O[C@H]3CC[C@@H](C)CC3)c(C(F)(F)F)c2c1)N1C2CCCC1CC(C(=O)O)C2` (stereo partly drawn) [Example 104, 9-(1-(7-((cis-4-methylcyclohexyl)oxy)-8-(trifluoromethyl)naphthalen-2-yl)propyl)-9-azabicyclo[3.3.1]nonane-3-carboxylic acid] displayed an IC50 not above 250 nM.

Consider `CC(C)[C@H]1CC[C@@H](Oc2ccc3ccc(CN4C5CCC4CC(C(=O)O)C5)cc3c2C(F)(F)F)CC1` (stereo partly drawn) [Example 107, 8-((7-((cis-4-isopropylcyclohexyl)oxy)-8-(trifluoromethyl)naphthalen-2-yl)methyl)-8-azabicyclo[3.2.1]octane-3-carboxylic acid], for which the half-maximal inhibitory concentration (IC50) was not above 100 nM.

`CC(C)[C@H]1CC[C@@H](Oc2ccc3ccc(CN4C5CCCC4CC(C(=O)O)C5)cc3c2C(F)(F)F)CC1` (stereo partly drawn) [Example 108, 9-((7-((cis-4-isopropylcyclohexyl)oxy)-8-(trifluoromethyl)naphthalen-2-yl)methyl)-9-azabicyclo[3.3.1]nonane-3-carboxylic acid] returned an IC50 not above 100 nM.

The values are drawn from patent US10017506B2, “ATX modulating agents” (BIOGEN MA INC., priority 2012, dated 2018).
